Tests used:
[1] = test system: NF-κB pathway; assay: TNF-α assay in IFN-γ-differentiated, LPS-stimulated THP-1 cells (ELISA); assay type: cell-based; settings: Homo sapiens, 50 ng/mL LPS, 3 hours
Method: Monocytic THP-1 cells (ATCC: TIB-202) are maintained in accordance with the provider's instructions in RPMI media (Life Technologies, Cat #A10491-01); RPMI is supplemented with 10% heat inactivated fetal bovine serum (Hyclone Cat #SH30396.03). The cells are differentiated into macrophages by the addition of 25 ng/mL IFN-γ for 24 hours at 37° C./5% CO2. Media is exchanged with fresh media with no FBS. The cells are plated at 40,000 cells per well in 384-well flat-bottom cell culture plates (Costar 3764) containing compounds (added in 1:1000) in a 1:3.16 serial dilution series in DMSO and are incubated for 30 minutes at 37° C./5% CO2. The NF-κB pathway is activated with the addition of 50 ng/mL LPS and the cells are incubated for 3 hours at 37° C./5% CO2. At the end of the incubation period, supernatant (40 μL) is removed, and […] are monitored using an ELISA (Human TNF-α ELISA, R&D systems, Cat #DY210) according to the manufacturer's instructions.
The IC50 values are calculated from a plot of percentage of inhibition versus the inhibitor concentration by a logistics curve fit according to: Y=[Bottom+(Top−Bottom)]/(1+10^[(Log IC50−X)·Hill Slope], where Y is the % inhibition at the inhibitor concentration, X, “Bottom” is the lowest inhibition value, i.e. 0%, “Top” is the maximum inhibition value, i.e. 100%, and the “Hill Slope” describes the slope of the sigmoidal curve between the “Bottom” and “Top” values. The curve fitting was conducted with internally developed software.

[2] = molecular target: NLRP3 inflammasome (Homo sapiens, UniProt Q96P20); assay: IL-1β assay in IFN-γ-differentiated, LPS-primed, ATP-activated THP-1 cells (ELISA); assay type: cell-based; settings: 50 ng/mL LPS priming, 2.5 mM ATP activation, 2 hours
Procedure, shortened: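 Supernatant IL-1β is quantified by ELISA after 2 h of 2.5 mM ATP stimulation at 37 °C, with IC50 taken from a four-parameter fit of % inhibition. Before this, THP-1 macrophages (25 ng/mL IFN-γ, 24 h) were LPS-primed (50 ng/mL, 24 h, no FBS) and exposed to serially diluted compound for 30 min.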

NLRP3 inflammasome, sequence (Q96P20 whole entry): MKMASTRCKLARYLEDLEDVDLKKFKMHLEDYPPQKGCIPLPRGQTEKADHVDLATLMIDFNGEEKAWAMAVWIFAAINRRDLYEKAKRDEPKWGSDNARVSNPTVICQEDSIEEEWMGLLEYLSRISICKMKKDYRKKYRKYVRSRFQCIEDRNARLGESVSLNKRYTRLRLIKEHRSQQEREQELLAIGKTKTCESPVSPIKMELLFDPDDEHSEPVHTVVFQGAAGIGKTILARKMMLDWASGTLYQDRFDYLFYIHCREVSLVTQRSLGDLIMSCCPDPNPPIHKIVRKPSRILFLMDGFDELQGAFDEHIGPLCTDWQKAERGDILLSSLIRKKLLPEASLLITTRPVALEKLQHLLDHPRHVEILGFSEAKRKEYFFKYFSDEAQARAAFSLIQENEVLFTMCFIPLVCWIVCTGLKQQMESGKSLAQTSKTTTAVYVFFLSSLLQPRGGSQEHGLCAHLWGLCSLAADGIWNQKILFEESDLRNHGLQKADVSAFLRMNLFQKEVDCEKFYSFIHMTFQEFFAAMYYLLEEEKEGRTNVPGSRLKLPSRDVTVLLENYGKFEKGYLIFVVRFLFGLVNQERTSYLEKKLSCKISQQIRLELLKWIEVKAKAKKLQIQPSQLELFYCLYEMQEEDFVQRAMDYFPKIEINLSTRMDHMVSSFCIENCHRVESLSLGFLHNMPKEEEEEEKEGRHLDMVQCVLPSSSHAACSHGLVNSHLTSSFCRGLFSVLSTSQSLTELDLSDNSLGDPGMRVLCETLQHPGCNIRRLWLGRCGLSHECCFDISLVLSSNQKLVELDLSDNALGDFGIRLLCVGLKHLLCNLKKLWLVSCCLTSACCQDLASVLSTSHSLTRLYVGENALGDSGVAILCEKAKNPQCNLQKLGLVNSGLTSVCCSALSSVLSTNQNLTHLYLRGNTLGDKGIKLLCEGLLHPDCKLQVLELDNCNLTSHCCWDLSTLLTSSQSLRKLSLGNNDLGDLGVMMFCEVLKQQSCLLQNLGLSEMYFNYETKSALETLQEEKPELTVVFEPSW

Structure (SMILES) | IC50 [1] [µM] | IC50 [2] [µM]
CN1C[C@H](F)C[C@@H](Nc2nnc(-c3ccc(Cl)cc3F)c3ccncc23)C1 [Example 184, 1-(4-chloro-2-fluorophenyl)-N-((3R,5R)-5-fluoro-1-methylpiperidin-3-yl)pyrido[3,4-d]pyridazin-4-amine] | > 30 | 0.152
CN1C[C@@H](F)C[C@@H](Nc2nnc(-c3ccc(Cl)cc3)c3ccccc23)C1 [Example 185, 4-(4-chlorophenyl)-N-((3R,5S)-5-fluoro-1-methylpiperidin-3-yl)phthalazin-1-amine] | > 30 | 0.311
Cc1ccc(-c2nnc(N[C@@H]3C[C@@H](F)CN(C)C3)c3c(C)nccc23)c(O)c1 [Example 186, 2-(4-(((3R,5R)-5-fluoro-1-methylpiperidin-3-yl)amino)-5-methylpyrido[3,4-d]pyridazin-1-yl)-5-methylphenol] | > 30 | 0.005
CN1C[C@H](F)C[C@@H](Nc2nnc(-c3ccc(Cl)cc3)c3ccncc23)C1 [Example 189, 1-(4-chlorophenyl)-N-((3R,5R)-5-fluoro-1-methylpiperidin-3-yl)pyrido[3,4-d]pyridazin-4-amine] | > 30 | 0.11
F[C@H]1CNC[C@H](Nc2nnc(-c3ccc(Cl)cc3)c3ccccc23)C1 [Example 190, 4-(4-chlorophenyl)-N-((3R,5R)-5-fluoropiperidin-3-yl)phthalazin-1-amine] | 7.59 | 0.648
CN1C[C@H](F)C[C@@H](Nc2nnc(-c3ccc(Cl)cc3)c3ccccc23)C1 [Example 192, 4-(4-chlorophenyl)-N-((3R,5R)-5-fluoro-1-methylpiperidin-3-yl)phthalazin-1-amine] | > 30 | 0.06
CCN1C[C@H](F)C[C@@H](Nc2nnc(-c3ccc(OC)cc3)c3ccccc23)C1 [Example 193, N-((3R,5R)-1-ethyl-5-fluoropiperidin-3-yl)-4-(4-methoxyphenyl)phthalazin-1-amine] | > 30 | 0.022
COc1ccc(-c2nnc(N[C@@H]3C[C@@H](F)CN(CC4CC4)C3)c3ccccc23)cc1 [Example 194, N-((3R,5R)-1-(cyclopropylmethyl)-5-fluoropiperidin-3-yl)-4-(4-methoxyphenyl)phthalazin-1-amine] | > 30 | 0.035
CCN1C[C@H](F)C[C@@H](Nc2nnc(-c3ccc(OC)cc3)c3ccncc23)C1 [Example 195, N-((3R,5R)-1-ethyl-5-fluoropiperidin-3-yl)-1-(4-methoxyphenyl)pyrido[3,4-d]pyridazin-4-amine] | > 30 | 0.113
COc1ccc(-c2nnc(N[C@@H]3C[C@@H](F)CN(C(C)C)C3)c3ccccc23)cc1 [Example 196, N-((3R,5R)-5-fluoro-1-isopropylpiperidin-3-yl)-4-(4-methoxyphenyl)phthalazin-1-amine] | > 30 | 0.012
CN1C[C@H](F)C[C@@H](Nc2nnc(-c3ccc(Cl)cc3O)c3c2CCOC3)C1 [Example 200, 5-chloro-2-(1-(((3R,5R)-5-fluoro-1-methylpiperidin-3-yl)amino)-7,8-dihydro-5H-pyrano[3,4-d]pyridazin-4-yl)phenol] | > 30 | 0.003
CN1C[C@H](F)C[C@@H](Nc2nnc(-c3ccc(F)cc3O)c3c2CCOC3)C1 [Example 203, 5-fluoro-2-(1-(((3R,5R)-5-fluoro-1-methylpiperidin-3-yl)amino)-7,8-dihydro-5H-pyrano[3,4-d]pyridazin-4-yl)phenol] | > 30 | 0.032
CN1C[C@H](F)C[C@@H](Nc2nnc(-c3ccc(OC(F)(F)F)cc3F)c3c2COCC3)C1 [Example 205, N-((3R,5R)-5-fluoro-1-methylpiperidin-3-yl)-1-(2-fluoro-4-(trifluoromethoxy)phenyl)-7,8-dihydro-5H-pyrano[3,4-d]pyridazin-4-amine] | > 30 | 0.064
COc1ccc(-c2nnc(N[C@@H]3C[C@@H](F)CN(C)C3)c3c2CCOC3)c(C(F)F)c1 [Example 206, 1-(2-(difluoromethyl)-4-methoxyphenyl)-N-((3R,5R)-5-fluoro-1-methylpiperidin-3-yl)-7,8-dihydro-5H-pyrano[3,4-d]pyridazin-4-amine] | > 30 | 0.425
COc1ccc(-c2nnc(N[C@@H]3C[C@@H](F)CN(C)C3)c3c2COCC3)c(C(F)F)c1 [Example 208, 4-(2-(difluoromethyl)-4-methoxyphenyl)-N-((3R,5R)-5-fluoro-1-methylpiperidin-3-yl)-7,8-dihydro-5H-pyrano[3,4-d]pyridazin-1-amine] | > 30 | 0.853
COc1ccc(-c2nnc(N[C@@H]3C[C@@H](F)CN(C)C3)c3c2COCC3)c(F)c1 [Example 209, N-((3R,5R)-5-fluoro-1-methylpiperidin-3-yl)-4-(2-fluoro-4-methoxyphenyl)-7,8-dihydro-5H-pyrano[3,4-d]pyridazin-1-amine] | > 30 | 1.05
COc1ccc(-c2nnc(N[C@@H]3C[C@@H](F)CN(C)C3)c3c2COCC3)c(C(F)(F)F)c1 [Example 210, N-((3R,5R)-5-fluoro-1-methylpiperidin-3-yl)-4-(4-methoxy-2-(trifluoromethyl)phenyl)-7,8-dihydro-5H-pyrano[3,4-d]pyridazin-1-amine] | > 30 | 0.757
CN1C[C@H](F)C[C@@H](Nc2nnc(-c3ccc(Cl)cc3F)c3c2CCOC3)C1 [Example 211, 4-(4-chloro-2-fluorophenyl)-N-((3R,5R)-5-fluoro-1-methylpiperidin-3-yl)-7,8-dihydro-5H-pyrano[3,4-d]pyridazin-1-amine] | > 30 | 1.15
CN1C[C@H](F)C[C@@H](Nc2nnc(-c3ccc(OC(F)(F)F)cc3F)c3c2CCOC3)C1 [Example 214, N-((3R,5R)-5-fluoro-1-methylpiperidin-3-yl)-4-(2-fluoro-4-(trifluoromethoxy)phenyl)-7,8-dihydro-5H-pyrano[3,4-d]pyridazin-1-amine] | > 30 | 0.556
COc1ccc(-c2nnc(N[C@@H]3C[C@@H](F)CN(C)C3)c3c2CCOC3)c(F)c1 [Example 215, N-((3R,5R)-5-fluoro-1-methylpiperidin-3-yl)-1-(2-fluoro-4-methoxyphenyl)-7,8-dihydro-5H-pyrano[3,4-d]pyridazin-4-amine] | > 30 | 0.16
COc1ccc(-c2nnc(N[C@@H]3C[C@@H](F)CN(C)C3)c3c2CCOC3)c(C(F)(F)F)c1 [Example 216, N-((3R,5R)-5-fluoro-1-methylpiperidin-3-yl)-1-(4-methoxy-2-(trifluoromethyl)phenyl)-7,8-dihydro-5H-pyrano[3,4-d]pyridazin-4-amine] | > 30 | 0.373
CN1C[C@H](F)C[C@@H](Nc2nnc(-c3ccc(Cl)cc3F)c3c2COCC3)C1 [Example 217, 1-(4-chloro-2-fluorophenyl)-N-((3R,5R)-5-fluoro-1-methylpiperidin-3-yl)-7,8-dihydro-5H-pyrano[3,4-d]pyridazin-4-amine] | > 30 | 0.876
COc1ccc(-c2nnc(N[C@@H]3CCCN(C)C3)c3c2CCOC3)cc1 [Example 222, (R)-1-(4-methoxyphenyl)-N-(1-methylpiperidin-3-yl)-7,8-dihydro-5H-pyrano[3,4-d]pyridazin-4-amine] | > 30 | 0.049
CN1CCC[C@@H](Nc2nnc(-c3ccc(Cl)cc3O)c3c2CCOC3)C1 [Example 224, (R)-5-chloro-2-(1-((1-methylpiperidin-3-yl)amino)-7,8-dihydro-5H-pyrano[3,4-d]pyridazin-4-yl)phenol] | > 30 | 0.002
Cc1ccc(-c2nnc(NC34CCC(O)(CC3)C4)c3c2COCC3)c(O)c1 [Example 232, 4-((4-(2-hydroxy-4-methylphenyl)-7,8-dihydro-5H-pyrano[3,4-d]pyridazin-1-yl)amino)bicyclo[2.2.1]heptan-1-ol] | > 30 | 0.155

From US20250340563A1, “FUSED PYRIDAZINE DERIVATIVES AS NLRP3 INHIBITORS” (Takeda Pharmaceutical Company Limited, priority 2022, published 2025)
